Converted amounts (≈) assume the structure as drawn.

Data set [1] can be described thus: Solubility of catalysts screened in methylene chloride (dichloromethane). It counts as physicochemical. The text has this:
In order to explore the effects of solvent polarity, the solubility of certain catalysts in methylene chloride was screened. Disclosed catalysts typically have a solubility of at least 10 milligrams/milliliter in dichloromethane, and typically at least 50 milligrams/milliliter in dichloromethane.
The absence of a significant non-polar region to the molecule may be the origin of this poor solubility. […] Sulfonamides are ideal choices for proline mimetics as their pKa has been documented to nicely match that of proline.
Ester-based catalysts according to the present disclosure also have markedly better solubilities than previously known compounds.

A short description of data set [2]: Solubility of catalysts under the intramolecular Michael addition conditions. Format: physicochemical. The conditions noted are these: chlorinated reaction solvent, incl. lower temperatures; compared with tetrazole 11 and sulfonamides 12-14. An excerpt: Proline sulfonamides were tried next as potential organocatalysts. While these ligands have shown promise in certain organocatalyzed reactions, they previously have proven problematic in facilitating Michael addition processes. Proline sulfonamides performed well, providing improved enantiomeric excess (e.e.) at room temperature (Entries 6-8). […] This sulfonamide 15 is readily accessible from the commercially available para-dodecylsulfonylchloride (16) and Cbz-protected proline 18 in 3 steps (Scheme 16).

In data set [1], `CCCCCCCCCCCCc1ccc(S(=O)(=O)NC(=O)C2CCCN2)cc1` (centres unmarked) [Sulfonamide 15, N-(p-dodecylphenylsulfonyl)-2-Pyrrolidinecarboxamide] showed a solubility in dichloromethane of 300 mg/mL (≈ 710 mM). Besides, the “solubility (in words)” value in data set [2] is “greatly improved solubility properties”.

Values taken from US8399684B2, “Sulfonamide-based organocatalysts and method for their use” (State of Oregon acting by and through the State Board of …, priority 2007, dated 2013).
